Data taken from PubChem BioAssay (NCI).
“And” between values parts separate entries of the source, which are not always exact repeats. Equal entries are not always repeated.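 Five concentrations, 48 hours, 96-well plates. At the GI50, growth is halved. Definition used: TGI = concentration required for complete inhibition of growth.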

How the values were obtained:
Assay in all cases: NCI-60 cell line screen, 48 h
SK-OV-3 ovarian = tested on: SK-OV-3 ovarian
HCC-2998 colon = tested on: HCC-2998 colon
T-47D breast = tested on: T-47D breast
UO-31 renal = tested on: UO-31 renal
NCI-H522 lung = tested on: NCI-H522 lung
DU-145 prostate = tested on: DU-145 prostate
NCI/ADR-RES ovarian = tested on: NCI/ADR-RES ovarian
MDA-MB-231 breast = tested on: MDA-MB-231 breast
SK-MEL-2 melanoma = tested on: SK-MEL-2 melanoma
786-0 renal = tested on: 786-0 renal
PC-3 prostate = tested on: PC-3 prostate
HS 578T breast = tested on: HS 578T breast
TK-10 renal = tested on: TK-10 renal
SF-268 CNS = tested on: SF-268 CNS
OVCAR-4 ovarian = tested on: OVCAR-4 ovarian
SK-MEL-5 melanoma = tested on: SK-MEL-5 melanoma
NCI-H226 lung = tested on: NCI-H226 lung
BT-549 breast = tested on: BT-549 breast
MALME-3M melanoma = tested on: MALME-3M melanoma
SR leukemia = tested on: SR leukemia
MCF7 breast = tested on: MCF7 breast
SF-295 CNS = tested on: SF-295 CNS
A498 renal = tested on: A498 renal
OVCAR-5 ovarian = tested on: OVCAR-5 ovarian
CCRF-CEM leukemia = tested on: CCRF-CEM leukemia
K-562 leukemia = tested on: K-562 leukemia
HOP-92 NSCLC = tested on: HOP-92 NSCLC
RPMI-8226 leukemia = tested on: RPMI-8226 leukemia
HL-60(TB) leukemia = tested on: HL-60(TB) leukemia
SK-MEL-28 melanoma = tested on: SK-MEL-28 melanoma
COLO 205 colon = tested on: COLO 205 colon
NCI-H23 lung = tested on: NCI-H23 lung
ACHN renal = tested on: ACHN renal
HT29 colon = tested on: HT29 colon
LOX IMVI melanoma = tested on: LOX IMVI melanoma
EKVX NSCLC = tested on: EKVX NSCLC
UACC-62 melanoma = tested on: UACC-62 melanoma
OVCAR-3 ovarian = tested on: OVCAR-3 ovarian
IGROV1 ovarian = tested on: IGROV1 ovarian
SNB-19 CNS = tested on: SNB-19 CNS
UACC-257 melanoma = tested on: UACC-257 melanoma
CAKI-1 renal = tested on: CAKI-1 renal
MOLT-4 leukemia = tested on: MOLT-4 leukemia
KM12 colon = tested on: KM12 colon
HOP-62 NSCLC = tested on: HOP-62 NSCLC
SN12C renal = tested on: SN12C renal
RXF 393 renal = tested on: RXF 393 renal
OVCAR-8 ovarian = tested on: OVCAR-8 ovarian
HCT-116 colon = tested on: HCT-116 colon
NCI-H460 lung = tested on: NCI-H460 lung
SF-539 CNS = tested on: SF-539 CNS
U251 CNS = tested on: U251 CNS
HCT-15 colon = tested on: HCT-15 colon
A549 NSCLC = tested on: A549 NSCLC
M14 melanoma = tested on: M14 melanoma
SW-620 colon = tested on: SW-620 colon
MDA-MB-435 = tested on: MDA-MB-435

CCOC(=O)/C=C(/N=P(c1ccccc1)(c1ccccc1)c1ccccc1)C(F)(F)F
TGI (SK-OV-3 ovarian): > 100000 nM | TGI (HCC-2998 colon): > 100000 nM | TGI (T-47D breast): > 100000 nM | TGI (UO-31 renal): > 100000 nM | TGI (NCI-H522 lung): > 100000 nM

COc1ccc(-c2cc(=O)oc3ccc(Cl)cc23)cc1F
GI50 (DU-145 prostate): 255 nM and 261 nM | TGI (DU-145 prostate): 4160 nM and 27300 nM | GI50 (NCI/ADR-RES ovarian): 44.2 nM and 47.8 nM | TGI (MDA-MB-231 breast): > 100000 nM | GI50 (SK-MEL-2 melanoma): 212 nM and 38.5 nM | TGI (SK-MEL-2 melanoma): 2680 nM | GI50 (SK-OV-3 ovarian): 384 nM and 209 nM | TGI (SK-OV-3 ovarian): > 100000 nM | GI50 (786-0 renal): 366 nM and 87.7 nM | TGI (786-0 renal): > 100000 nM | GI50 (PC-3 prostate): 274 nM and 79.7 nM | TGI (PC-3 prostate): > 100000 nM | GI50 (HS 578T breast): 181 nM and 75.4 nM | TGI (HS 578T breast): 68900 nM | GI50 (TK-10 renal): 435 nM | TGI (TK-10 renal): 79600 nM | GI50 (SF-268 CNS): 616 nM and 302 nM | TGI (SF-268 CNS): > 100000 nM | GI50 (HCC-2998 colon): 590 nM and 243 nM | TGI (HCC-2998 colon): 30200 nM | GI50 (OVCAR-4 ovarian): 1030 nM and 5590 nM | TGI (OVCAR-4 ovarian): > 100000 nM | GI50 (SK-MEL-5 melanoma): 140 nM and 71.7 nM | TGI (SK-MEL-5 melanoma): 835 nM and 2350 nM | GI50 (NCI-H226 lung): 705 nM and 3940 nM | TGI (NCI-H226 lung): > 100000 nM | GI50 (BT-549 breast): 303 nM and 66.5 nM | TGI (BT-549 breast): 6620 nM | GI50 (MALME-3M melanoma): 59200 nM | TGI (MALME-3M melanoma): > 100000 nM | GI50 (SR leukemia): 42.6 nM | GI50 (MCF7 breast): 78.5 nM and 46.8 nM | TGI (MCF7 breast): 18600 nM | GI50 (SF-295 CNS): 84.5 nM and 36.7 nM | TGI (SF-295 CNS): 14200 nM | GI50 (A498 renal): 103 nM and 47.1 nM | TGI (A498 renal): 790 nM and 5170 nM | GI50 (OVCAR-5 ovarian): 633 nM and 1260 nM | TGI (OVCAR-5 ovarian): > 100000 nM | GI50 (CCRF-CEM leukemia): 222 nM and 59.9 nM | TGI (CCRF-CEM leukemia): > 100000 nM | GI50 (K-562 leukemia): 43.5 nM and 40.1 nM | TGI (HOP-92 NSCLC): 7940 nM | GI50 (RPMI-8226 leukemia): 297 nM and 106 nM | TGI (RPMI-8226 leukemia): > 100000 nM | GI50 (HL-60(TB) leukemia): 129 nM and 33.9 nM | TGI (HL-60(TB) leukemia): 908 nM and 480 nM | GI50 (SK-MEL-28 melanoma): 1710 nM and 3050 nM | TGI (SK-MEL-28 melanoma): > 100000 nM | GI50 (COLO 205 colon): 146 nM and 85.3 nM | TGI (COLO 205 colon): 1090 nM and 896 nM | GI50 (NCI-H23 lung): 302 nM and 413 nM | TGI (NCI-H23 lung): 96000 nM | TGI (ACHN renal): > 100000 nM | GI50 (HT29 colon): 53.8 nM and 39.7 nM | TGI (HT29 colon): 336 nM | GI50 (LOX IMVI melanoma): 186 nM and 69.5 nM | TGI (LOX IMVI melanoma): > 100000 nM | GI50 (EKVX NSCLC): 509 nM and 362 nM | TGI (EKVX NSCLC): > 100000 nM | GI50 (UACC-62 melanoma): 37.7 nM and 40.6 nM | TGI (UACC-62 melanoma): > 100000 nM | GI50 (OVCAR-3 ovarian): 50.2 nM and 37.9 nM | TGI (OVCAR-3 ovarian): 497 nM and 345 nM | GI50 (IGROV1 ovarian): 1160 nM and 683 nM | TGI (IGROV1 ovarian): > 100000 nM | GI50 (SNB-19 CNS): 350 nM and 74.4 nM | TGI (SNB-19 CNS): > 100000 nM | GI50 (UACC-257 melanoma): 23200 nM | TGI (UACC-257 melanoma): > 100000 nM | TGI (CAKI-1 renal): > 100000 nM | GI50 (MOLT-4 leukemia): 310 nM and 57.1 nM | TGI (MOLT-4 leukemia): > 100000 nM | GI50 (KM12 colon): 71.2 nM and 52.4 nM | TGI (KM12 colon): 11000 nM | GI50 (HOP-62 NSCLC): 208 nM and 188 nM | TGI (HOP-62 NSCLC): 27300 nM | TGI (SN12C renal): > 100000 nM | GI50 (RXF 393 renal): 141 nM and 233 nM | GI50 (UO-31 renal): 755 nM and 1200 nM | TGI (UO-31 renal): > 100000 nM | GI50 (OVCAR-8 ovarian): 490 nM and 327 nM | TGI (OVCAR-8 ovarian): > 100000 nM | GI50 (HCT-116 colon): 91.3 nM and 44.7 nM | TGI (HCT-116 colon): 3630 nM and 10700 nM | GI50 (NCI-H460 lung): 167 nM and 49.9 nM | TGI (NCI-H460 lung): 21800 nM | GI50 (SF-539 CNS): 126 nM and 47.5 nM | TGI (SF-539 CNS): 733 nM and 479 nM | GI50 (U251 CNS): 331 nM and 51.9 nM | TGI (U251 CNS): 12600 nM | GI50 (HCT-15 colon): 53.7 nM and 46.3 nM | TGI (HCT-15 colon): 10400 nM | GI50 (A549 NSCLC): 268 nM and 105 nM | TGI (A549 NSCLC): > 100000 nM | GI50 (NCI-H522 lung): 34.9 nM and 21.8 nM | GI50 (M14 melanoma): 51.9 nM and 42.3 nM | TGI (M14 melanoma): > 100000 nM | GI50 (SW-620 colon): 53 nM and 43.1 nM | TGI (SW-620 colon): > 100000 nM | GI50 (MDA-MB-435): 23.3 nM and 20 nM | TGI (MDA-MB-435): 67.5 nM and 53.1 nM

COc1ccc2c(NCCCCCCCCNc3c4ccccc4nc4cc(OC)ccc34)c3ccccc3nc2c1
GI50 (DU-145 prostate): 49.8 nM | TGI (DU-145 prostate): 339 nM | GI50 (SK-MEL-2 melanoma): 162 nM | TGI (SK-MEL-2 melanoma): 358 nM | GI50 (TK-10 renal): 126 nM | TGI (TK-10 renal): 763 nM | GI50 (HCC-2998 colon): 71.8 nM | TGI (HCC-2998 colon): 254 nM | GI50 (OVCAR-4 ovarian): 93.8 nM | TGI (OVCAR-4 ovarian): 446 nM | GI50 (T-47D breast): 50.8 nM | TGI (T-47D breast): 295 nM | GI50 (NCI-H226 lung): 128 nM | TGI (NCI-H226 lung): 961 nM | GI50 (MCF7 breast): 27.9 nM | TGI (MCF7 breast): 192 nM | GI50 (A498 renal): 129 nM | TGI (A498 renal): 437 nM | GI50 (CCRF-CEM leukemia): 25.3 nM | TGI (CCRF-CEM leukemia): 431 nM | GI50 (K-562 leukemia): 52.9 nM | TGI (K-562 leukemia): 300 nM | GI50 (HOP-92 NSCLC): 1240 nM | TGI (HOP-92 NSCLC): 2580 nM | GI50 (HL-60(TB) leukemia): 363 nM | TGI (HL-60(TB) leukemia): 2130 nM | TGI (IGROV1 ovarian): 108 nM | GI50 (UACC-257 melanoma): 221 nM | TGI (UACC-257 melanoma): 1070 nM | GI50 (MOLT-4 leukemia): 54.6 nM | TGI (MOLT-4 leukemia): 2320 nM | GI50 (HOP-62 NSCLC): 65.8 nM | TGI (HOP-62 NSCLC): 318 nM | GI50 (RXF 393 renal): 117 nM | TGI (RXF 393 renal): 332 nM | GI50 (UO-31 renal): 48.8 nM | TGI (UO-31 renal): 223 nM | GI50 (NCI-H522 lung): 11 nM | TGI (NCI-H522 lung): 187 nM
